# Measured values as given in patent US20020119141A1, “Biochemical methods that eliminate corneal scars, opacification and haze” (priority 1999, published 2002).
# Where two headings read alike, the source gives them in different places.
# Test system: eyes of rabbits
# Excerpt: Fifty-two (52) healthy rabbits of the New Zealand Cross variety (26 male, 26 female) weighing 1.5 kg to 2.5 kg were individually marked for identification and were housed individually in suspended cages. The animals received a commercially available pelleted rabbit feed on a daily basis, with tap water available ad libitum.
# The animals were divided into thirteen groups of 4 animals each (2 males, 2 femals). Two animals in each group (1 male, 1 female) were selected for pretreatment fundus photography and fluorescein angiography.
# The fundus photography was performed by restraining the animals and visualizing the optic nerve, retinal arcades and fundus with a KOWA® RC-3 Fundus Camera loaded with Kodak Gold 200 ASA film.
# The fluorescein angiography involved a 1.5-ml injection of 2% sterile fluorescein solution via the marginal ear vein. Approximately 30 seconds post-injection the fluorescein was visualized upon localization of the optic nerve, retinal vessels and fundus.
# The following day, each animal was anesthetized by intravenous administration of a combination of 34 mg/kg of ketamine hydrochloride and 5-mg/kg xylazine. The eyelids were retracted using a lid speculum, and the eyes were disinfected with an iodine-povidone wash.
# The experimental treatments administered to each animal group were as follows:
# The day following the injections (Day 1) the 26 animals, which were subjected to the fundus photography and fluorescein angiography, were observed using the same methods as for the pre-dose examination.
# The eyes were then surgically removed and placed in a fixture solution of 2.5% glutaraldehyde with 0.1M phosphate buffered saline at pH 7.37. Alternatively, one randomly selected rabbit was euthanized by pentobarbital injection but then fixed by intracardiac injection of the gluteraldehyde solution into the left ventricle to determine the effect of the fixation procedure on the histology findings within the enucleated eyes.
# On Day 7, the 13 female rabbits that had been previously photographed and angiography performed were subjected to same observations following the methods previously described.
# The remaining 26 animals were euthanized as described above 7 days after dosing. The eyes were fixed in the same manner as those, which had been fixed on day 2. Also, one randomly selected rabbit was subjected to the same intracardiac gluteraldehyde fixation procedure described hereabove for the previously randomly selected animal.
# The eyes of the animals treated in this example were examined grossly and microscopically for evidence of treatment-related toxicities.
substance,measurement,setting,value
Thimerosal [BSS + Thimerisol],treatment-related toxicity of the eyes (gross and microscopic examination),"0.0075 mg thimerosal in BSS, day 2",free of toxicity
same,treatment-related toxicity of the eyes (gross and microscopic examination),"0.0075 mg thimerosal in BSS, day 7, listed as BSS plus thimerosal",significant toxic effects
same,treatment-related toxicity of the eyes (gross and microscopic examination),"0.0075 mg thimerosal in BSS, day 7, listed as BSS+thimerosal",breakdown of the blood retinal barrier
same,treatment-related toxicity of the eyes (gross and microscopic examination),"0.025 mg thimerosal in BSS, day 2 and 7 post dose",severe treatment-related toxic effects
same,toxic effects in the eyes of rabbits (conclusion),"intravitreal injection, at the dosages tested",do cause toxic effects
